Test results from patent US20250136576A1, “Heterocyclic Compounds and Uses Thereof” (ACEA Therapeutics, Inc., priority 2021, published 2025).

Tested on: KM12-luc cells
Test: Cell proliferation and growth inhibition assay (CCK-8) in KM12-luc
Format: cell-based
Settings: KM12-Luc, 72 h, KM12-luc cells, treated with test compounds for 72 hrs, CCK-8 viability; read-out: NTRK IC50 in KM12-luc
Method in brief: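 Cells were grown at 37 °C, 5% CO2 with 10% FBS: MV-4-11 in IMDM, H1975 in RPMI 1640, KM12-luc in DMEM. Viability was read by CCK-8 (1-4 hrs reagent incubation, absorbance at OD450). IC50 came from a non-linear sigmoidal dose-response fit.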

Compound	IC50 [µM]
COc1cnc(-n2cc(-c3nc(Nc4ccc(N(C)CCN(C)C)c(NC(C)=O)c4)ncc3OC)c3ccccc32)nc1-c1c[nH]c2ccccc12 [Compound 272b, N-(5-(4-(1-(4-(1H-indol-3-yl)-5-methoxypyrimidin-2-yl)-1H-indol-3-yl)-5-methoxypyrimidin-2-ylamino)-2-((2-(dimethylamino)ethyl)(methyl)amino)phenyl)acetamide]	2.06
CNc1cc(Nc2ncc(OC)c(-c3c[nH]c4ccccc34)n2)ccc1N(C)CCN(C)C [Compound 273a, N^4-(4-(1H-indol-3-yl)-5-methoxypyrimidin-2-yl)-N1-(2-(dimethylamino)ethyl)-N^1,N^2-dimethylbenzene-1,2,4-triamine]	0.127
CNc1cc(Nc2ncc(OC)c(-c3cn(-c4ncc(OC)c(-c5c[nH]c6ccccc56)n4)c4ccccc34)n2)ccc1N(C)CCN(C)C [Compound 273b, N^4-(4-(1-(4-(1H-indol-3-yl)-5-methoxypyrimidin-2-yl)-1H-indol-3-yl)-5-methoxypyrimidin-2-yl)-N^1-(2-(dimethylamino)ethyl)-N^1,N^2-dimethylbenzene-1,2,4-triamine]	3.32
COc1cnc(Nc2ccc(N(C)CCN(C)C)c(NC(C)=O)c2)nc1-c1cn(C)c2ccccc12 [Compound 274, N-(2-((2-(dimethylamino)ethyl)(methyl)amino)-5-(5-methoxy-4-(1-methyl-1H-indol-3-yl)pyrimidin-2-ylamino)phenyl)acetamide]	0.128
CNc1cc(Nc2ncc(OC)c(-c3cn(C)c4ccccc34)n2)ccc1N(C)CCN(C)C [Compound 275, N^1-(2-(dimethylamino)ethyl)-N^4-(5-methoxy-4-(1-methyl-1H-indol-3-yl)pyrimidin-2-yl)-N^1,N^2-dimethylbenzene-1,2,4-triamine]	0.6
COc1cnc(Nc2ccc(N(C)CCN(C)C)c(NCC(F)(F)F)c2)nc1-c1cn(C)c2ccccc12 [Compound 276, N^1-(2-(dimethylamino)ethyl)-N^4-(5-methoxy-4-(1-methyl-1H-indol-3-yl)pyrimidin-2-yl)-N^1-methyl-N^2-(2,2,2-trifluoroethyl)benzene-1,2,4-triamine]	0.679
COc1cnc(Nc2ccc(N(C)CCN(C)C)c(NC(C)=O)c2)nc1-c1cn(C)c2cccc(F)c12 [Compound 277, N-(2-((2-(dimethylamino)ethyl)(methyl)amino)-5-((4-(4-fluoro-1-methyl-1H-indol-3-yl)-5-methoxypyrimidin-2-yl)amino)phenyl)acetamide]	0.368
COc1cnc(Nc2ccc(N(CCN(C)C)C(C)=O)c(NC(C)=O)c2)nc1-c1c[nH]c2c(F)cccc12 [Compound 278, N-(2-acetamido-4-((4-(7-fluoro-1H-indol-3-yl)-5-methoxypyrimidin-2-yl)amino)phenyl)-N-(2-(dimethylamino)ethyl)acetamide]	0.0171
COc1cnc(Nc2ccc(OCCN(C)C)c(NC(C)=O)c2)nc1-c1c[nH]c2c(F)cccc12 [Compound 279, N-(2-(2-(dimethylamino)ethoxy)-5-((4-(7-fluoro-1H-indol-3-yl)-5-methoxypyrimidin-2-yl)amino)phenyl)acetamide]	0.0526
COc1cnc(Nc2ccc(OCCN(C)C)c(N)c2)nc1-c1cn(C)c2c(F)cccc12 [Compound 283, 4-(2-(dimethylamino)ethoxy)-N^1-(4-(7-fluoro-1-methyl-1H-indol-3-yl)-5-methoxypyrimidin-2-yl)benzene-1,3-diamine]	0.0864
COc1cnc(Nc2ccc(OCCN(C)C)c(NC(C)=O)c2)nc1-c1cn(C)c2c(C)cccc12 [Compound 285, N-(5-((4-(1,7-dimethyl-1H-indol-3-yl)-5-methoxypyrimidin-2-yl)amino)-2-(2-(dimethylamino)ethoxy)phenyl)acetamide]	0.0996
COc1cnc(Nc2ccc(N(CCN(C)C)C(C)=O)c(NC(C)=O)c2)nc1-c1c[nH]c2c(OC)cccc12 [Compound 286, N-(2-acetamido-4-((5-methoxy-4-(7-methoxy-1H-indol-3-yl)pyrimidin-2-yl)amino)phenyl)-N-(2-(dimethylamino)ethyl)acetamide]	0.0146
COc1cnc(Nc2ccc(OCCN(C)C)c(NC(C)=O)c2)nc1-c1c[nH]c2c(OC)cccc12 [Compound 287, N-(2-(2-(dimethylamino)ethoxy)-5-((5-methoxy-4-(7-methoxy-1H-indol-3-yl)pyrimidin-2-yl)amino)phenyl)acetamide]	0.0219
COc1cnc(Nc2ccc(N(C)CCN(C)C)c(NC(C)=O)c2)nc1-c1cn(C)nc1C [Compound 289, N-(5-((4-(1,3-dimethyl-1H-pyrazol-4-yl)-5-methoxypyrimidin-2-yl)amino)-2-((2-(dimethylamino)ethyl)(methyl)amino)phenyl)acetamide]	> 10
CNc1cc(Nc2ncc(OC)c(-c3cn(C)nc3C)n2)ccc1N(C)CCN(C)C [Compound 290, N^4-(4-(1,3-dimethyl-1H-pyrazol-4-yl)-5-methoxypyrimidin-2-yl)-N1-(2-(dimethylamino)ethyl)-N^1,N^2-dimethylbenzene-1,2,4-triamine]	> 10
COc1nc(Nc2ccc(N(C)CCN(C)C)c(NC(C)=O)c2)nc(-c2cn(C)c3ccccc23)c1OC [Compound 291a, N-(5-((4,5-dimethoxy-6-(1-methyl-1H-indol-3-yl)pyrimidin-2-yl)amino)-2-((2-(dimethylamino)ethyl) (methyl)amino)phenyl)acetamide]	8.67
COc1nc(Nc2cc(F)c(N(C)CCN(C)C)c(NC(C)=O)c2)nc(-c2cn(C)c3ccccc23)c1OC [Compound 291b, N-(5-((4,5-dimethoxy-6-(1-methyl-1H-indol-3-yl)pyrimidin-2-yl)amino)-2-((2-(dimethylamino)ethyl)(methyl)amino)-3-fluorophenyl)acetamide]	1.4
CCN(CCN(C)C)c1ccc(Nc2nc(OC)c(OC)c(-c3cn(C)c4ccccc34)n2)cc1NC(C)=O [Compound 291c, N-(5-((4,5-dimethoxy-6-(1-methyl-1H-indol-3-yl)pyrimidin-2-yl)amino)-2-((2-(dimethylamino)ethyl) (ethyl)amino)phenyl) acetamide]	2.05
CCN(CCN(C)C)c1c(F)cc(Nc2nc(OC)c(OC)c(-c3cn(C)c4ccccc34)n2)cc1NC(C)=O [Compound 291d, N-(5-((4,5-dimethoxy-6-(1-methyl-1H-indol-3-yl)pyrimidin-2-yl)amino)-2-((2-(dimethylamino)ethyl) (ethyl)amino)-3-fluorophenyl)acetamide]	3.27
COc1c(N)nc(Nc2ccc(N(C)CCN(C)C)c(N)c2)nc1-c1cn(C)c2ccccc12 [Compound 294, N^4-(4-amino-5-methoxy-6-(1-methyl-1H-indol-3-yl)pyrimidin-2-yl)-N^1-(2-(dimethylamino)ethyl)-N^1-methylbenzene-1,2,4-triamine]	0.167
COc1c(N)nc(Nc2ccc(N(C)CCN(C)C)c(NC(C)=O)c2)nc1-c1cn(C)c2ccccc12 [Compound 295, N-(5-((4-amino-5-methoxy-6-(1-methyl-1H-indol-3-yl)pyrimidin-2-yl)amino)-2-((2-(dimethylamino)ethyl) (methyl)amino)phenyl) acetamide]	0.159
CN(C)CCN(C)c1ccc(Nc2ncc(C(F)(F)F)c(-c3c[nH]c4ccccc34)n2)cc1N [Compound 297, N^4-(4-(1H-indol-3-yl)-5-(trifluoromethyl)pyrimidin-2-yl)-N^1-(2-(dimethylamino)ethyl)-N^1-methylbenzene-1,2,4-triamine]	0.0377
CC(=O)Nc1cc(Nc2ncc(C(F)(F)F)c(-c3c[nH]c4ccccc34)n2)cc(F)c1N(C)CCN(C)C [Compound 299a, N-(5-((4-(1H-indol-3-yl)-5-(trifluoromethyl)pyrimidin-2-yl)amino)-2-((2-(dimethylamino)ethyl)(methyl)amino)-3-fluorophenyl)acetamide]	0.0481
CC(=O)Nc1cc(Nc2nc(-c3c[nH]c4ccccc34)ncc2C(F)(F)F)cc(F)c1N(C)CCN(C)C [Compound 299b, N-(5-((2-(1H-indol-3-yl)-5-(trifluoromethyl)pyrimidin-4-yl)amino)-2-((2-(dimethylamino)ethyl)(methyl)amino)-3-fluorophenyl)acetamide]	3.38
CCN(CCN(C)C)c1ccc(Nc2ncc(C(F)(F)F)c(-c3c[nH]c4ccccc34)n2)cc1NC(C)=O [Compound 300a, N-(5-((4-(1H-indol-3-yl)-5-(trifluoromethyl)pyrimidin-2-yl)amino)-2-((2-(dimethylamino)ethyl)(ethyl)amino)phenyl)acetamide]	0.0279
CCN(CCN(C)C)c1ccc(Nc2nc(-c3c[nH]c4ccccc34)ncc2C(F)(F)F)cc1NC(C)=O [Compound 300b, N-(5-((2-(1H-indol-3-yl)-5-(trifluoromethyl)pyrimidin-4-yl)amino)-2-((2-(dimethylamino)ethyl)(ethyl)amino)phenyl)acetamide]	3.68
CCN(CCN(C)C)c1ccc(Nc2ncc(C(F)(F)F)c(-c3c[nH]c4ccccc34)n2)cc1N [Compound 301, N^4-(4-(1H-indol-3-yl)-5-(trifluoromethyl)pyrimidin-2-yl)-N^1-(2-(dimethylamino)ethyl)-N-ethylbenzene-1,2,4-triamine]	0.0754
CCC(=O)Nc1cc(Nc2ncc(C(F)(F)F)c(-c3c[nH]c4ccccc34)n2)ccc1N(CC)CCN(C)C [Compound 302, N-(5-((4-(1H-indol-3-yl)-5-(trifluoromethyl)pyrimidin-2-yl)amino)-2-((2-(dimethylamino)ethyl)(ethyl)amino)phenyl)propionamide]	0.0968
Cc1nc2cc(Nc3ncc(C(F)(F)F)c(-c4c[nH]c5ccccc45)n3)ccc2n1CCN(C)C [Compound 303b, N^1—N-(4-(1H-indol-3-yl)-5-(trifluoromethyl)pyrimidin-2-yl)-1-(2-(dimethylamino)ethyl)-2-methyl-1H-benzo[d]imidazol-5-amine]	0.0643
